Experimental findings from patent US9718790B2, “Triazine derivative and pharmaceutical composition having an analgesic activity comprising the same” (SHIONOGI & CO., LTD., priority 2010, dated 2017) are described below.

The assay concerns the target human P2X3 receptor (Homo sapiens (Human), UniProt P56373). The assay is described as follows: Evaluation of human P2X3 receptor inhibitory activity (Fluo-3 calcium fluorescence, FDSS 3000, ATP stimulation).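 Further: stimulus was 50 nM ATP with fluorescence followed for 3 min, and the response per well was peak post-ATP fluorescence divided by the reading at measurement start.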 The settings on record: C6BU-1 cells stably expressing human P2X3 receptor, Fluo-3 fluorescence, FDSS 3000. It is filed as cell-based.

“And” between values parts separate entries of the source, which are not always exact repeats. Equal values may be shown once.

Sequence of human P2X3 receptor (P56373 whole entry): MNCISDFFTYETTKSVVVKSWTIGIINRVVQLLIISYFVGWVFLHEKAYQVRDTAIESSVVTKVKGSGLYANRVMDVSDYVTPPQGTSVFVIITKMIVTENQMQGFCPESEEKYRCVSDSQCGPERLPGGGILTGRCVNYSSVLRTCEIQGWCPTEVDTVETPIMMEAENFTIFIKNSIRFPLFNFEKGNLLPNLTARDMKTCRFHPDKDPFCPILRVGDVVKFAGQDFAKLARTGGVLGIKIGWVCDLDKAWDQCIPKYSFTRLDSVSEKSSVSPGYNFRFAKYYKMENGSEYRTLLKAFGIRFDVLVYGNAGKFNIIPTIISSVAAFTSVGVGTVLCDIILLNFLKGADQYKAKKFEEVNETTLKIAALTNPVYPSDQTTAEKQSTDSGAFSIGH

`CCCOc1ccc(/N=c2\[nH]c(=O)n([C@@H](C)[C@@H](C)C(=O)OC)c(=O)n2Cc2ccc(C)cc2)cc1` [Compound I-0926]: the IC50 (usually the concentration that inhibits the measured activity by half) was found to be 31 nM. The result for `COC(=O)[C@H](C)[C@H](C)n1c(=O)[nH]/c(=N\c2ccc(OC(C)C)c(C)c2)n(Cc2ccc(C)cc2)c1=O` [Compound I-0927] reads 21 nM; that for `COC(=O)[C@H](C)[C@H](C)n1c(=O)[nH]/c(=N\c2ccc(OC(C)C)c(Cl)c2)n(Cc2ccc(C)cc2)c1=O` [Compound I-0928], 14 nM; that for `CCCOc1ccc(/N=c2\[nH]c(=O)n([C@@H](C)[C@@H](C)C(=O)O)c(=O)n2Cc2ccc(C)cc2)cc1` [Compound I-0929], 45 nM. In the case of `Cc1ccc(Cn2c(=O)n([C@@H](C)[C@@H](C)C(=O)O)c(=O)[nH]/c2=N\c2ccc(OC(C)C)c(C)c2)cc1` [Compound I-0930] it was 30 nM; in that of `C[C@@H](Cn1c(=O)[nH]/c(=N\c2ccc(O[C@H](C)C(F)(F)F)cc2)n(Cc2ccc(Cl)cc2)c1=O)C(=O)O` [Compound I-0932], 21 nM. The result for `C[C@H](Oc1ccc(/N=c2\[nH]c(=O)n(C[C@H](C)C(=O)O)c(=O)n2Cc2ccc(Cl)cc2)cc1)C(F)(F)F` [Compound I-0933] reads 82 nM. For `O=C(O)C1(Cn2c(=O)[nH]/c(=N\c3ccc(OCC4CC4)cc3)n(Cc3ccc(Cl)cc3)c2=O)CC1` [Compound I-0934], the IC50 was determined as 57 nM. In the case of `Cc1ccc(Cn2c(=O)n(CC3(C(=O)O)CC3)c(=O)[nH]/c2=N\c2ccc(OC(C)C)c(C)c2)cc1` [Compound I-0935] it was 38 nM. In the case of `CC[C@@H](C)Oc1ccc(/N=c2\[nH]c(=O)n([C@H](C)CC(=O)O)c(=O)n2Cc2ccc(C)cc2)cc1` [Compound I-0936] it was 65 nM; in that of `CC[C@@H](C)Oc1ccc(/N=c2\[nH]c(=O)n([C@H](C)CC(=O)O)c(=O)n2Cc2ccc(C)cc2)cc1C` [Compound I-0937], 22 nM. On to `CC[C@@H](C)Oc1ccc(/N=c2\[nH]c(=O)n([C@H](C)CC(=O)OC)c(=O)n2Cc2ccc(C)cc2)cc1C` [Compound I-0938], for which the IC50 amounted to 35 nM.

As for `CC[C@@H](C)Oc1ccc(/N=c2\[nH]c(=O)n([C@H](C)CC(=O)OC)c(=O)n2Cc2ccc(C)cc2)cc1` [Compound I-0939], the IC50 was found to be 34 nM.

As to `CCOC(=O)C1(Cn2c(=O)[nH]/c(=N\c3ccc(OC(C)C)c(C)c3)n(Cc3ccc(C)cc3)c2=O)CC1` [Compound I-0941], the IC50 was 5 nM. The result for `COC(=O)[C@@H](C)Cn1c(=O)[nH]/c(=N\c2ccc(O[C@H](C)C(F)(F)F)cc2)n(Cc2ccc(Cl)cc2)c1=O` [Compound I-0942] reads 22 nM; that for `COC(=O)[C@@H](C)Cn1c(=O)[nH]/c(=N\c2ccc(O[C@@H](C)C(F)(F)F)cc2)n(Cc2ccc(Cl)cc2)c1=O` [Compound I-0943], 61 nM. As to `C#Cc1ccc(Cn2c(=O)n(C[C@H](C)C(=O)OC)c(=O)[nH]/c2=N\c2ccc(OC(C)C)c(C)c2)cc1` [Compound I-0945], the IC50 is 173 nM. The result for `C#Cc1ccc(Cn2c(=O)n(C[C@H](C)C(=O)O)c(=O)[nH]/c2=N\c2ccc(OC(C)C)c(C)c2)cc1` [Compound I-0946] reads 239 nM; that for `COC(=O)[C@@H](C)Cn1c(=O)[nH]/c(=N\c2ccc(CC(C)C)c(C)c2)n(Cc2ccc(Cl)cc2)c1=O` [Compound I-0947], 24 nM; that for `COC(=O)[C@@H](C)Cn1c(=O)[nH]/c(=N\c2ccc(C=C(C)C)c(C)c2)n(Cc2ccc(Cl)cc2)c1=O` [Compound I-0948], 19 nM. The result for `Cc1cc(/N=c2\[nH]c(=O)n(C[C@H](C)C(=O)O)c(=O)n2Cc2ccc(Cl)cc2)ccc1CC(C)C` [Compound I-0949] reads 8 nM and 21 nM.

In the case of `CC(C)=Cc1ccc(/N=c2\[nH]c(=O)n(C[C@H](C)C(=O)O)c(=O)n2Cc2ccc(Cl)cc2)cc1C` [Compound I-0950], the IC50 worked out at 20 nM.

For the compound `COC(=O)[C@@H](C)Cn1c(=O)[nH]/c(=N\c2ccc(OC(C)C)c(C#N)c2)n(Cc2ccc(C)cc2)c1=O` [Compound I-0951], the IC50 amounted to 33 nM.
